Laboratory results reported in patent US7754272B2, “Local drug delivery” (Biocompatibles IK Limited, priority 1999, dated 2010).

Legend:
[1] = Drug loading of HEMA-PC:HEMA:MMA:MBA crosslinked membrane; type: physicochemical; settings: HEMA-PC:HEMA:MMA:MBA copolymer swollen in aqueous drug solution, room temperature, over night
Text: The polymers including MBA were polymerised in situ to form crosslinked membranes. […] The crosslinked polymers were used to form “infinite slabs” type membranes, to simulate the coating on a stent. […] The loaded levels were established to be the following: […]

[2] = Loading and release from quater polymer membrane; type: physicochemical; settings: caffeine from aqueous, dipyridamole from 1:1 ethanol:water solution
[3] = Release from loaded membrane into water; type: physicochemical; settings: HEMA-PC:HEMA:MMA:MBA membrane, FIG. 1
Text: The profile of fractional release against square root of time for release into water (using the same equipment as example 2) are set out in FIG. 1.

[4] = Effect of polymer composition on release of dicloxacillin; type: physicochemical; settings: HEMA-PC:LM 1:4 with 2 mole % 3-chloro-2-hydroxypropyl methacrylate vs example 3 polymer, FIG. 2
Text: The membrane formed based on a 1:4 copolymer of HEMA-PC and dodecylmethacrylate (LM) with 2 mole % of reactive monomer which is 3-chloro-2-hydroxypropyl methacrylate, was compared to the polymer crosslinked by diethylenically unsaturated monomer MBA used in example 3 above, to compare release rates to dicloxacillin, a medium molecular weight model drug.

[5] = Ex vivo human saphenous vein model, polymer/dipyridamole coated stents
Experimental: Palmaz-Schatz Stents (trade mark) were coated with a solution of the same polymer as used in Reference Example 1, dissolved in ethanol at 50 g/l concentration, also containing dipyridamole at 30 g/l concentration. Stents were dipped into the solution by hand, using several coating steps. The stents were then cured overnight at 70 C. in moist air.
The coated stents were tested in an ex vivo model using fresh human saphenous vein, previously washed in the same culture medium as is used in Example 16 above, in the ex vivo tests. The stents were delivered into veins, which were subsequently deposited into apparatus used in Example 16. The circulating liquid, and the vessel wall were analysed at 1, 6 or 24 hours to determine localisation of dipyridamole. […] Similarly, the level of dipyridamole remaining on the stent decreases from 1 hour to 24 hours. […] At this time, dipyridamole is concentrated in the section of the vein immediately surrounding the stent with lower levels in the vessel immediately adjacent those sections.

Loading (mg/g polymer) [1] [mg/g polymer]	release half life, polymer having hydrophobic groups versus MBA-crosslinked polymer [4]	SMILES	level of drug per stent (coated stent swollen in aqueous caffeine 10 mg/ml)	share of loading released in the first 60 seconds (first 60 seconds)	release times (release into aqueous medium, loaded from 10 mg/ml)	loading levels or release half life versus 10 mg/ml loading (swelling solution 10% w/w caffeine)	total loading [2] [mg/g polymer]	release into water [3]	dipyridamole within the vessel wall ([5]; 1, 6 or 24 hours)	dipyridamole in the circulating medium ([5]; 1 to 24 hours)
32	much higher	Cc1onc(-c2c(Cl)cccc2Cl)c1C(=O)N[C@@H]1C(=O)N2[C@@H]1SC(C)(C)[C@@H]2C(=O)O [Dicloxacillin, dicloxacillin]								
32		OCCN(CCO)c1nc(N2CCCCC2)c2nc(N(CCO)CCO)nc(N3CCCCC3)c2n1 [Dipyridamole, dipyridamole]					18		no dipyridamole could be seen within the vessel wall until twenty four hours after stent deployment	can be detected in the circulating medium after one hour

SMILES	Loading (mg/g polymer) [1] [mg/g polymer]	release half life, polymer having hydrophobic groups versus MBA-crosslinked polymer [4]	level of drug per stent (coated stent swollen in aqueous caffeine 10 mg/ml)	share of loading released in the first 60 seconds (first 60 seconds)	release times (release into aqueous medium, loaded from 10 mg/ml)	loading levels or release half life versus 10 mg/ml loading (swelling solution 10% w/w caffeine)	total loading [2] [mg/g polymer]	release into water [3]	dipyridamole within the vessel wall ([5]; 1, 6 or 24 hours)	dipyridamole in the circulating medium ([5]; 1 to 24 hours)
Cn1c(=O)c2c(ncn2C)n(C)c1=O [Caffeine, caffeine]	80		around 0.025 mg per stent	at least 80%	negligible	No significant increase	28	substantially total release after about an hour		
